Source: patent US20160176894A1, “TAXANE AND ABEO-TAXANE ANALOGS” (Arbor Therapeutics, LLC, priority 2013, published 2016)
Read-outs that look alike come from different tables or passages of the source.

What was measured:
[1] = system: MES-SA/Dx5 doxorubicin-resistant subline; experiment: MTT-based cytotoxicity assay, MES-SA/Dx5; format: cell-based, human; details: for IC50: MTT, multidrug resistant subline (MDR1/P-glycoprotein); for Degree of resistance (MES-SA/Dx5): IC50 of the resistant line divided by IC50 of sensitive MES-SA cells
Excerpt: (§1) These lines included a uterine sarcoma line, MES-SA. (Harker, W. G.; MacKintosh, F. R.; Sikic, B. I., Development and characterization of a human sarcoma cell line, MES-SA, sensitive to multiple drugs. Cancer Res. 1983, 43, 4943-4950), and its doxorubicin-resistant subline, MES-SA/DxS. (Harker, W. G.; Sikic, B. I., Multidrug (pleiotropic) resistance in doxorubicin-selected variants of the human sarcoma cell line MES-SA. Cancer Res. 1985, 45, 4091-4096). […] However, resistance to bleomycin, cisplatin, carmustine, 5-fluorouracil or methotrexate is not observed. MES-SA/Dx5 cells express high levels of ABCB 1 (MDR1) mRNA and its gene product, the P-glycoprotein. MES-SA and MES-SA/Dx5 were purchased from the American Type Culture Collection (ATCC, Manassas, Va.).

CEM/VM-1-5 cells = experiment: MTT-based cytotoxicity assay, CEM/VM-1-5; format: cell-based, human; details: for IC50: MTT, atypical MDR subline (ABCC1/MRP1); for Degree of resistance (CEM/VM-1-5): IC50 of the resistant line divided by IC50 of sensitive CEM cells
Experimental: (§2) The second set of cells tested, CCRF-CEM or simply CEM, were derived from the blood of a patient with acute lymphobiastic leukemia. (Foley, G. E.; Lazarus, H.; Farber, S.; Uzman, B. G.; Boone, B. A.; McCarthy, R. E., Continuous Culture of Human Lymphoblasts from Peripheral Blood of a Child with Acute Leukemia. Cancer 1965, 18, 522-529). The subline CEM/VLB100 was developed to be resistant to up to vinblastine at 100 ng/ml. (Beck, W. T.; Mueller, T. J.; Tanzer, L. R., Altered surface membrane glycoproteins in Vinca alkaloid-resistant human leukemic lymphoblasts. Cancer Res. 1979, 39, 2070-2076). Drug resistance is achieved by overexpression of the MDR1 gene. Resistance in the CEM subline designated CEM/VM-1-5, however, is “atypical.” (Danks, M. K.; Yalowich, J. C.; Beck, W. T., Atypical multiple drug resistance in a human leukemic cell line selected for resistance to teniposide (VM-26). Cancer Res. 1987, 47, 1297-1301). The classes of drugs included in the “classic” multiple drug resistance phenotype are Vinca alkaloids, anthracyclines, epipodophyllotoxins and antibiotics. However, CEM/VM-1-5 cells retain sensitivity to the Vinca alkaloids despite resistance and cross-resistance to etoposide, anthracyclines and mitoxantrone. (Danks, M. K.; Schmidt, C. A.; Cirtain, M. C.; Suttle, D. P.; Beck, W. T., Altered catalytic activity of and DNA cleavage by DNA topoisomerase II from human leukemic cells selected for resistance to VM-26. Biochemistry 1988, 27, 8861-8869). Resistance in CEM/VM-1-5 cells is effected by over expression of the ABCC1 (MRP1) gene. CEM, CEM/VLB100 and CEM/VM-1-5 cells were obtained from Dr. WT Beck, University of Illinois at Chicago.

CCRF-CEM (CEM) cells = experiment: MTT-based cytotoxicity assay, CEM; format: cell-based, human; details: sensitive parental line
Excerpt: as §1, §2

[2] = system: MES-SA uterine sarcoma line; experiment: MTT-based cytotoxicity assay, MES-SA; format: cell-based, human; details: sensitive parental line
Excerpt: as §1

CEM/VLB100 cells = experiment: MTT-based cytotoxicity assay, CEM/VLB100; format: cell-based, human; details: for IC50: vinblastine-resistant subline (MDR1); for Degree of resistance (CEM/VLB100): IC50 of the resistant line divided by IC50 of sensitive CEM cells
Experimental: as §2

MDAH2774 = experiment: MTS proliferation assay, MDAH2774; format: cell-based; details: read-out: MTS-6: 72 hr proliferation IC50, MDAH2774
HCT-15 (MDR+) = experiment: MTS proliferation assay, HCT-15; format: cell-based; details: read-out: MTS-6: 72 hr proliferation IC50, HCT-15
DU145 = experiment: MTS proliferation assay, DU145; format: cell-based; details: Homo sapiens, DU-145, MDR negative, extrapolated outside tested range
SKNAS = experiment: MTS proliferation assay, SKNAS; format: cell-based; details: Homo sapiens, SK-N-AS, MDR negative, extrapolated outside tested range
MESSA/DOX = experiment: MTS proliferation assay, MESSA/DOX; format: cell-based; details: Homo sapiens, MDR positive
22Rv1 = experiment: MTS proliferation assay, 22Rv1; format: cell-based; details: read-out: MTS-6: 72 hr proliferation IC50, 22Rv1
KB = experiment: MTS proliferation assay, KB; format: cell-based; details: Homo sapiens, MDR negative, extrapolated outside tested range
KBV = experiment: MTS proliferation assay, KBV; format: cell-based; details: MDR positive
MV522/Mdr1 = experiment: MTS proliferation assay, MV522/Mdr1; details: read-out: IC50 MV522/Mdr1
MDAMB435s = experiment: MTS proliferation assay, MDAMB435s; format: cell-based; details: Homo sapiens, MDA-MB-435S, MDR negative, extrapolated outside tested range
A2780-A5 = experiment: MTS proliferation assay, A2780-A5; format: cell-based; details: read-out: MTS-6: 72 hr proliferation IC50, A2780-A5
A2680-DXR1 (MDR+) = experiment: MTS proliferation assay, A2680-DXR1; format: cell-based; details: 72 hr, read-out: MTS-6: 72 hr proliferation IC50, A2680-DXR1
MV522 = experiment: MTS proliferation assay, MV522; format: cell-based; details: read-out: MTS-6: 72 hr proliferation IC50, MV522
HT29 = experiment: MTS proliferation assay, HT29; format: cell-based; details: Homo sapiens, HT-29, MDR negative, extrapolated outside tested range
[3] = system: cancer cell lines, both MDR expressing and non-MDR expressing; experiment: MTS proliferation assay, cell line panel (general statements); format: cell-based
tubulin = tubulin protein assembly assay; format: biochemical; details: for ED50/ED50 (Paclitaxel): ratio to paclitaxel; for EC50: tubulin assembly, read-out: ED50 (the source's name)

Structure (SMILES)	IC50 ([1]; Homo sapiens, MES-SA/Dx5) [nM]	Degree of resistance (MES-SA/Dx5) [1]	IC50 (CEM/VM-1-5 cells; Homo sapiens) [nM]	Degree of resistance (CEM/VM-1-5) (CEM/VM-1-5 cells)	IC50 (CCRF-CEM (CEM) cells; Homo sapiens, CCRF-CEM) [nM]	IC50 ([2]; Homo sapiens, MES-SA) [nM]	IC50 (CEM/VLB100 cells; Homo sapiens, CEM/VLB100, MTT) [nM]	Degree of resistance (CEM/VLB100) (CEM/VLB100 cells)	IC50 (CEM/VM-1-5 cells) [nM]	IC50 (CEM/VLB100 cells; MTT) [nM]	IC50 (A2680-DXR1 (MDR+)) [nM]	ED50/ED50 (Paclitaxel) (tubulin)	EC50 (tubulin) [nM]	further results
CC[C@]1(O)C[C@@H]2CN(CCc3c([nH]c4ccccc34)[C@@](C(=O)OC)(c3cc4c(cc3OC)N(C)[C@H]3[C@@](O)(C(=O)OC)[C@H](OC(C)=O)[C@]5(CC)C=CCN6CC[C@]43[C@@H]65)C2)C1 [Vinblastine]	43 ± 12	38.5 ± 0.7	1.3 ± 0.9	1.2 ± 0.07	1 ± 0.8	1.1 ± 0.3	227 ± 77	255 ± 127						
CC(=O)O[C@H]1C(=O)[C@@]2(C)[C@H]([C@H](OC(=O)c3ccccc3)[C@]3(O)C[C@H](OC(=O)[C@H](O)[C@@H](NC(=O)c4ccccc4)c4ccccc4)C(C)=C1C3(C)C)[C@]1(OC(C)=O)CO[C@@H]1C[C@@H]2O [Paclitaxel]	19400 ± 204	3105 ± 2416	< 11	4		9 ± 7			8	3030	3580			IC50 (MDAH2774; Homo sapiens, MDAH 2774, 72 h): 0.015 nM; IC50 (HCT-15 (MDR+); Homo sapiens, HCT-15, 72 hr): 311 nM; IC50 (DU145): < 0.002 nM; IC50 (SKNAS): < 0.002 nM; IC50 (MESSA/DOX): ≥ 500 nM; IC50 (22Rv1; Homo sapiens, 22Rv1, 72 h): 1.7 nM; IC50 (KB): < 0.002 nM; IC50 (KBV): ≥ 500 nM; IC50 (MV522/Mdr1): ≥ 500 nM; IC50 (MDAMB435s): < 0.002 nM; IC50 (A2780-A5; 72 h): < 0.002 nM; IC50 (MV522; MV522, 72 h): 1.71 nM; IC50 (HT29): < 0.002 nM
C=CC1OC2CC3OCC3(OC(C)=O)C3C(OC(=O)c4ccccc4)C4(O)CC(OC(=O)C(O)C(CC(C)C)NC(=O)OC(C)(C)C)C(C)=C(C(OC(C)=O)C(O1)C23C)C4(C)C (stereo not drawn) [10-βTX (14b.2), 10-beta taxane acrolein acetal]	36 ± 34	1.2 ± 0.5	9 ± 1	1.2 ± 0.3	7.5 ± 0.7	28 ± 16	22 ± 11	3 ± 1						
C=CC1OC2CC3OCC3(OC(C)=O)C3C(OC(=O)c4ccccc4)C4(C(C)(C)O)CC(OC(=O)C(O)C(CC(C)C)NC(=O)OC(C)(C)C)C(C)=C4C(OC(C)=O)C(O1)C23C (stereo not drawn) [10-αAT (15a.2)]		1.6 ± 0.8		1.3 ± 1.4				4 ± 0	5 ± 4	19 ± 9	15	0.53	1580 ± 460	IC50 (MDAH2774; 72 hr): 0.18 nM; IC50 (HCT-15 (MDR+); 72 hr): 2.4 nM; IC50 [1]: 15 ± 8 nM; IC50 (22Rv1; 72 hr): 5.7 nM; IC50 (CCRF-CEM (CEM) cells): 5 ± 3 nM; IC50 [2]: 9.5 ± 0.7 nM; IC50 [3]: < 1000 nM; IC50 (A2780-A5; 72 hr): 0.282 nM; IC50 (MV522; 72 hr): 3.5 nM; affinity for tubulin (in words) (tubulin; compared to several recognized tubulin binding agents): surprisingly great affinity for tubulin
CC(=O)O[C@@]12CO[C@@H]1C[C@H](O)[C@@]1(C)C(=O)[C@H](O)C3=C(C)[C@@H](OC(=O)[C@H](O)[C@@H](NC(=O)OC(C)(C)C)c4ccccc4)C[C@@](O)([C@@H](OC(=O)c4ccccc4)[C@H]21)C3(C)C [Docetaxel]												1.07	3180 ± 450	
